How the values were obtained:
[1] = test system: DSS-induced colitis in mice; assay: Dextran sulfate sodium (DSS)-induced colitis model; type: in vivo; conditions: for body weight loss: DSS colitis mice, VB-201 oral daily; for body weight loss / disease activity index (DAI), chronic phase / disease activity index (DAI), acute phase: glatiramer acetate 2 mg per mouse s.c. daily; for disease activity index (DAI), chronic phase: after about day 20; for disease activity index (DAI), chronic phase / disease activity index (DAI), acute phase: VB-201 0.04, 0.4 or 4 mg/kg oral daily, FIG. 3; for disease activity index (DAI), acute phase: until about day 20
Description: Colitis was induced in mice with dextran sulfate sodium (DSS), to serve as a model of inflammatory disorders. A solution of 2% DSS was administered in the drinking water of the mice on days 0-4, 19-23 and 32-36 of the experiment.
VB-201 was administered by oral gavage at daily doses of 0.04, 0.4 or 4 mg/kg, beginning 5 days prior to disease induction (i.e., first day of DSS administration). In an alternative treatment, 2 mg per mouse of glatiramer acetate was administered subcutaneously, daily from day 0. Each treatment group included 20 mice. As a negative control, 15 mice were administered vehicle (PBS with 0.5% ethanol) by gavage beginning 5 days prior to disease induction. […], 8 mice were administered vehicle (PBS with 0.5% ethanol) by gavage beginning 5 days prior to disease induction, without treatment with DSS, and 5 mice received no treatment at all. Mice were sacrificed on day 39, and their colon length and weight was determined.
Mice were scored according to a disease activity index (DAI), based on the average score for weight loss, stool consistency and bleeding, as follows: […]

[2] = test system: atherosclerosis (aortic lesion area) in rabbits fed a high-cholesterol diet; assay: Measurement of aortic lesion area in rabbits fed a high-cholesterol diet; type: in vivo, male New Zealand White rabbits; conditions: high-cholesterol diet 14 weeks, atorvastatin approx. 2.5 mg/kg daily in diet, VB-201 approx. 4 mg/kg oral gavage 5 days per week, FIG. 1
Description: Aortas were collected upon sacrifice. Lesion area was determined by scanning the intensity of Sudan IV stain adhering to the lesioned tissue, using Image-Pro Plus software (Media Cybernetics). Lesion areas were calculated in three different sections of the aorta (aortic arch, thoracic aorta and abdominal aorta). The total aortic lesion area (sum of lesion areas in all 3 sections) was calculated as a percentage of the sum of all 3 section areas.
Atherosclerosis was induced in male New Zealand White rabbits (hsdIF:NZ, Harlan) by supplying the rabbits with a high-cholesterol diet (0.5% w/w cholesterol) for 14 weeks. The rabbits were assigned to four treatment groups (7 or 8 animals per group): a) atorvastatin treatment; b) VB-201 treatment; c) combined atorvastatin+VB-201 treatment; and d) PBS with 0.5% ethanol (control group). […]
(§1) At the end of 14 weeks, the rabbits were sacrificed, and the effects of the treatments were evaluated by measurement of aortic lesion areas and plasma cholesterol levels, and routine blood chemistry assessment (as described hereinabove). Plasma cholesterol levels were also determined after 5 weeks of the high-cholesterol diet.

[3] = Plasma cholesterol assay in rabbits fed a high-cholesterol diet; type: in vivo, male New Zealand White rabbits; conditions: for Average cholesterol level / Average cholesterol level (% of control): plasma, atorvastatin 2.5 mg/kg, VB-201 4 mg/kg; for effect on cholesterol levels (in words): rabbits on high-cholesterol diet, atorvastatin 2.5 mg/kg (alone or with VB-201), VB-201 4 mg/kg per se
Description: Plasma cholesterol levels were determined in the Bert W. Strassburger Lipid Center (Sheba Medical Center, Israel) using a Cobas Mira analyzer (Roche) and cholesterol reagent (Roche/Hitach).
Atherosclerosis was induced in male New Zealand White rabbits (hsdIF:NZ, Harlan) by supplying the rabbits with a high-cholesterol diet (0.5% w/w cholesterol) for 14 weeks. The rabbits were assigned to four treatment groups (7 or 8 animals per group): a) atorvastatin treatment; b) VB-201 treatment; c) combined atorvastatin+VB-201 treatment; and d) PBS with 0.5% ethanol (control group).
Atorvastatin was administered by supplementing the diet with 50 mg/kg atorvastatin, which corresponds to a daily dose of approximately 2.5 mg/kg, based on a daily food consumption of approximately 125 grams per rabbit and an average weight of 2.5 kg.
VB-201 was administered daily (5 days per week) by oral gavage of the stock solution (2.7 mg/ml) at volume of 1.5 ml per kg body weight, corresponding to a dose of approximately 4 mg/kg.
as §1

C-reactive protein (CRP) = conditions: healthy humans; previously shown; cited from earlier work
[4] = Blood chemistry assay (SGPT, alkaline phosphatase) in rabbits fed a high-cholesterol diet; type: in vivo, male New Zealand White rabbits; conditions: 14 weeks of high-cholesterol diet, atorvastatin 2.5 mg/kg, VB-201 4 mg/kg
Description: Blood chemistry was assayed by the Pathological Chemistry Institute Laboratory (Sheba Medical Center, Israel) using an AU2700® spectrophotometer (Olympus) and the appropriate Olympus reagents. The parameters evaluated were urea, creatinine, glucose, potassium, sodium, chloride, total calcium, phopshorus, uric acid, bilirubin, SGOT, SGPT, LDH, total CPK, CPK-MB, CK-MB %, total protein, albumin, globulin, alkaline phosphatase and osmolality levels. Atherosclerosis was induced in male New Zealand White rabbits (hsdIF:NZ, Harlan) by supplying the rabbits with a high-cholesterol diet (0.5% w/w cholesterol) for 14 weeks. The rabbits were assigned to four treatment groups (7 or 8 animals per group): a) atorvastatin treatment; b) VB-201 treatment; c) combined atorvastatin+VB-201 treatment; and d) PBS with 0.5% ethanol (control group). […] VB-201 was administered daily (5 days per week) by oral gavage of the stock solution (2.7 mg/ml) at volume of 1.5 ml per kg body weight, corresponding to a dose of approximately 4 mg/kg. At the end of 14 weeks, the rabbits were sacrificed, and the effects of the treatments were evaluated by measurement of aortic lesion areas and plasma cholesterol levels, and routine blood chemistry assessment (as described hereinabove).

[5] = day 39, VB-201 at all tested doses (0.04, 0.4, 4 mg/kg), glatiramer acetate 2 mg per mouse, FIG. 4
[6] = 5 weeks of high-cholesterol diet
[7] = 14 weeks of high-cholesterol diet
[8] = glatiramer acetate 2 mg per mouse s.c. daily from day 0, FIG. 2

Molecule | body weight loss [1] | disease activity index (DAI), chronic phase [1] | DSS-induced shortening of the colon length [1, 5] | disease activity index (DAI), acute phase [1] | reduction of aortic lesion areas relative to the control group [2] | Average cholesterol level [3, 6] | Average cholesterol level (% of control) [3, 6] | Average cholesterol level [3, 7] | Average cholesterol level (% of control) [3, 7] | effect on cholesterol levels (in words) [3] | other results
CCCCCCCCCCCCCCCCOCC(COP(=O)([O-])OCC[N+](C)(C)C)OCCCCC(=O)O (stereo not shown) [VB-201, 1-hexadecyl-2-(4′-carboxybutyl)-glycerol-3-phosphocholine] | reduced body weight loss over the period of days 17-24 | reduced the DAI | partially reversed | without reducing the DM | 39% | 1303 mg/dL | 126 % of control | 2195 mg/dL | 131 % of control | did not reduce cholesterol levels | survival at day 39 ([1]; VB-201 at all tested doses (0.04, 0.4 or 4 mg/kg daily oral gavage), FIG. 2): at least 80%; effect on colon length, compared between doses ([1]; day 39, 0.04 mg/kg VB-201 versus 0.4 and 4 mg/kg, FIG. 4): more effective than the higher doses; DSS-induced increase in the colon weight/length ratios ([1]; day 39, VB-201 at all tested doses (0.04, 0.4, 4 mg/kg), glatiramer acetate 2 mg per mouse, FIG. 5): partially reversed; C-reactive protein (CRP) levels, a marker for inflammation (C-reactive protein (CRP)): effective at reducing
Glatiramer acetate | reduced body weight loss over the period of days 8-22 | did not reduce the DAI | not effective | reduced the DAI | – | – | – | – | – | – | survival by day 39 compared with control mice [1, 8]: below that of control mice; survival until day 23 [1, 8]: 100%
CC(C)c1c(C(=O)Nc2ccccc2)c(-c2ccccc2)c(-c2ccc(F)cc2)n1CC[C@@H](O)C[C@@H](O)CC(=O)O [Atorvastatin] | – | – | – | – | 33% | 580 mg/dL | 56 % of control | 1082 mg/dL | 64 % of control | reduced cholesterol levels considerably | Average Alkaline Phosphatase level [4]: 104.63 IU/L; Average Alkaline Phosphatase level (% of control) [4]: 174 % of control; Average SGPT level [4]: 110.63 IU/L; Average SGPT level (% of control) [4]: 235 % of control; effect on SGPT and alkaline phosphatase levels (in words) ([4]; rabbits): increased

Source: patent US20120329758A1, “Combined Treatment Utilizing VB-201” (priority 2010, published 2012)
